# Reference: patent US20240376138A1, “Crystal Forms, Preparation Method And Application Of Aryl Phosphine Oxide Compound” (Chengdu Di'Ao Jiuhong Pharmaceutical Factory, priority 2021, published 2024)
# Test: High temperature and illumination stability test of crystal forms 1-3
# Type: physicochemical
# Excerpt: The stabilities of crystal form 2 and crystal form 3 under high temperature, illumination and long-term conditions were investigated.
# [1] = High temperature (50° C.), Day 10, dihydrate
# [2] = High temperature (50° C.), Day 30, dihydrate
# [3] = Illumination (illuminance: 5000Lx), Day 10, dihydrate
# [4] = Illumination (illuminance: 5000Lx), Day 30, dihydrate
compound,measurement,setting,value
"COc1cc(N2CCC(N3CCN(C)CC3)CC2)c(C)cc1Nc1ncc(Br)c(Nc2ccc(C)cc2P(C)(C)=O)n1 [Crystal form 1, (2-((5-bromo-2-((2-methoxy-5-methyl-4-(4-(4-methylpiperazin-1-yl)piperidin-1-yl)phenyl)amino)pyrimidin-4-yl)amino)-5-methylphenyl)dimethylphosphorus oxide dihydrate]",Traits,"Day 0, dihydrate",off-white
same,purity,"Day 0, dihydrate",purity: 99.66%
same,total impurities,"Day 0, dihydrate",impurities: 0.34%
same,the number of impurities above the reporting limit,"Day 0, reporting limit per ICHQ3B",limit is 4 total
same,Traits,[1],off-white
same,purity,[1],purity: 99.65%;
same,the number of impurities above the reporting limit,[1],limit is 5; total
same,total impurities,[1],impurities: 0.35%
same,Traits,[2],off-white
same,purity,[2],purity: 99.53%;
same,the number of impurities above the reporting limit,[2],limit is 6; total
same,total impurities,[2],impurities: 0.47%
same,Traits,"Illumination (illuminance: 5000Lx), Day 10 (Table 18-1), dihydrate",off-white
same,Traits,[3],off-white
same,purity,[3],purity: 99.65%;
same,the number of impurities above the reporting limit,[3],limit is 5; total
same,total impurities,[3],impurities: 0.35%
same,Traits,[4],off-white
same,purity,[4],purity: 99.60%;
same,the number of impurities above the reporting limit,[4],limit is 6; total
same,total impurities,[4],impurities: 0.40%
